Measured values from patent US4724233A, “Therapeutical application of phosphonylmethoxyalkyl adenines” (Stichting Rega VZW, priority 1985, dated 1988).
In brackets after ≈: the same amount, converted by molar mass. Entries after “also recorded” stand apart in the source; their conditions may differ. Where two headings read alike, the source gives them in different places.

Assays:
HSV-1 (strain) McIntyre = experiment: inhibition of cytopathic effect of HSV-1 strain McIntyre; assay type: cell-based, herpes simplex virus type 1; conditions: Human alphaherpesvirus 1; Table 4; HSV-1 McIntyre, PRK cells; read-out: MIC50
CMV (strain) Davis = experiment: inhibition of CMV strain Davis in HEL cells; assay type: cell-based, cytomegalovirus; conditions: Human betaherpesvirus 5, Table 5, read-out: MIC50
[1] = tested on: HSV-1 (strain) TK^- C1101; experiment: inhibition of cytopathic effect of HSV-1 TK- strain C1101; assay type: cell-based, herpes simplex virus type 1; conditions: Human alphaherpesvirus 1, PRK, read-out: MIC50
in vitro = conditions: rabbit, prk cells
Reovirus = experiment: inhibition of cytopathic effect of reovirus; assay type: cell-based; conditions: Reovirus sp.; Table 3; Vero B cells; read-out: MIC50
Coxsackie B4 = experiment: inhibition of cytopathic effect of Coxsackie B4; assay type: cell-based; conditions: Enterovirus B, B4; Table 3; Vero B, HeLa cells; read-out: MIC50
Vaccinia = experiment: microbe, parasite or virus in culture; assay type: cell-based; conditions: Orthopoxvirus vaccinia, PRK, read-out: MIC50
Vesicular stomatitis = experiment: microbe, parasite or virus in culture; assay type: cell-based; conditions: read-out: MIC50
Measles = experiment: inhibition of cytopathic effect of measles; assay type: cell-based; conditions: Measles morbillivirus; Table 3; Vero Flow cells; read-out: MIC50
[2] = tested on: HSV-1 (strain) TK^- B2006; experiment: inhibition of cytopathic effect of HSV-1 TK- strain B2006; assay type: cell-based, herpes simplex virus type 1; conditions: Human alphaherpesvirus 1, PRK, read-out: MIC50
[3] = antimetabolic activity: incorporation of 3H-labeled precursors into primary rabbit kidney cells; conditions: rabbit, prk cells
VZV (strain) TK^- YSR = experiment: microbe, parasite or virus in culture; assay type: cell-based, varicella-zoster virus; conditions: Human alphaherpesvirus 3, HEL, read-out: MIC50
Herpes simplex 2 (G) = experiment: inhibition of cytopathic effect of herpes simplex 2 (G); assay type: cell-based, herpes simplex virus type 2; conditions: Human alphaherpesvirus 2, PRK, PRK cells, read-out: MIC50
CMV (strain) AD 169 = experiment: inhibition of CMV strain AD 169 in HEL cells; assay type: cell-based, cytomegalovirus; conditions: Human betaherpesvirus 5; Table 5; CMV AD 169, HEL cells; read-out: MIC50
vaccinia virus (VV) = assay type: cell-based; conditions: 48 h, PRK cells, average of two determinations
HSV-1 (strain) F = experiment: inhibition of cytopathic effect of HSV-1 strain F; assay type: cell-based, herpes simplex virus type 1; conditions: Human alphaherpesvirus 1; Table 4; HSV-1 F, PRK cells; read-out: MIC50
Parainfluenza 3 = experiment: inhibition of cytopathic effect of parainfluenza 3; assay type: cell-based; conditions: Table 3; Vero B cells; read-out: MIC50
VZV (strain) OKa = experiment: microbe, parasite or virus in culture; assay type: cell-based, varicella-zoster virus; conditions: Human alphaherpesvirus 3, HEL, read-out: MIC50
Moloney sarcoma = experiment: inhibition of Moloney sarcoma virus; assay type: cell-based, Moloney mouse sarcoma virus; conditions: Mus musculus; Table 3; MO cells; read-out: MIC50
VZV (strain) YS = experiment: microbe, parasite or virus in culture; assay type: cell-based, varicella-zoster virus; conditions: Human alphaherpesvirus 3, Table 5, HEL cells, read-out: MIC50
Herpes simplex I (KOS) = experiment: inhibition of cytopathic effect of herpes simplex 1 (KOS); assay type: cell-based, herpes simplex virus type 1; conditions: Human alphaherpesvirus 1; Table 3; PRK cells; read-out: MIC50
Polio 1 = experiment: microbe, parasite or virus in culture; assay type: cell-based; conditions: HeLa, read-out: MIC50
[4] = tested on: herpes simplex virus type 1 (HSV-1) (strain KOS); assay type: cell-based; conditions: PRK cells
Sindbis = experiment: inhibition of cytopathic effect of Sindbis; assay type: cell-based; conditions: Table 3; Vero B cells; read-out: MIC50
HSV-2 (strain) 196 = experiment: inhibition of cytopathic effect of HSV-2 strain 196; assay type: cell-based, herpes simplex virus type 2; conditions: Human alphaherpesvirus 2; Table 4; HSV-2 196, PRK cells; read-out: MIC50
HSV-2 (strain) Lyons = experiment: inhibition of cytopathic effect of HSV-2 strain Lyons; assay type: cell-based, herpes simplex virus type 2; conditions: Human alphaherpesvirus 2; Table 4; HSV-2 Lyons, PRK cells; read-out: MIC50
VZV (strain) TK^- 07-1 = experiment: microbe, parasite or virus in culture; assay type: cell-based, varicella-zoster virus; conditions: Human alphaherpesvirus 3, HEL, read-out: MIC50
DNA-viruses = assay type: cell-based
TK^- herpes viruses = conditions: Prusoff et al.; cited from earlier work
[5] = cited from earlier work

Question: Which results are given for Nc1ncnc2c1ncn2C[C@@H](CO)OCP(=O)(O)O [No. 4, (S)-9-(3-hydroxy-2-phosphonylmethoxypropyl)adenine]?
Answer: EC50 (HSV-1 (strain) McIntyre): 1 to 3 µg/mL (≈ 3.3 to 9.89 µM); EC50 (CMV (strain) Davis): 0.3 µg/mL (≈ 0.989 µM); EC50 [1]: 1 µg/mL (≈ 3.3 µM); MCC at 72 h (in vitro): ≥ 200 µg/mL; EC50 (Reovirus): > 40 µg/mL; EC50 (Coxsackie B4): > 400 µg/mL; EC50 (Vaccinia): 0.3 to 1.5 µg/mL (≈ 0.989 to 4.95 µM); EC50 (Vesicular stomatitis): > 400 µg/mL; EC50 (Measles): > 40 µg/mL; EC50 [2]: 1 µg/mL (≈ 3.3 µM); IC50 ([3]; ID50 Leu incorporation, (3H-4,5)Leu): > 400 µg/mL; IC50 ([3]; ID50 Urd incorporation, (3H-5)Urd): > 400 µg/mL; IC50 ([3]; ID50 dThd incorporation, (3H-methyl) dThd): 297 µg/mL (≈ 980 µM); IC50 ([3]; ID50 dUrd incorporation, (3H-1',2')dUrd): 74 µg/mL (≈ 244 µM); EC50 (VZV (strain) TK^- YSR): 0.004 µg/mL (≈ 0.0132 µM); EC50 (Herpes simplex 2 (G); Table 3): 1 to 3 µg/mL (≈ 3.3 to 9.89 µM); EC50 (Herpes simplex 2 (G); Table 4, HSV-2 G): 1 to 3 µg/mL (≈ 3.3 to 9.89 µM); EC50 (CMV (strain) AD 169): 0.3 µg/mL (≈ 0.989 µM); Titer of VV (vaccinia virus (VV); 10 μg/ml (value in parentheses)): < 1.3 log10 PFU/ml; Titer of VV (vaccinia virus (VV); 100 μg/ml): < 1.3 log10 PFU/ml; EC50 (HSV-1 (strain) F): 1 to 3 µg/mL (≈ 3.3 to 9.89 µM); EC50 (Parainfluenza 3): > 200 µg/mL; EC50 (VZV (strain) OKa): 0.004 µg/mL (≈ 0.0132 µM); EC50 (Moloney sarcoma): 1 µg/mL (≈ 3.3 µM); EC50 (VZV (strain) YS): 0.004 µg/mL (≈ 0.0132 µM); EC50 (Herpes simplex I (KOS)): 1 µg/mL (≈ 3.3 µM); EC50 (Polio 1): > 400 µg/mL; Titer of HSV-1 ([4]; 24 h, 100 μg/ml): < 1.3 log10 PFU/ml; Titer of HSV-1 ([4]; 48 h, 10 μg/ml (value in parentheses)): 4.3 log10 PFU/ml; Titer of HSV-1 ([4]; 48 h, 100 μg/ml): < 1.3 log10 PFU/ml; EC50 (Sindbis): > 400 µg/mL; EC50 (HSV-2 (strain) 196): 1 to 3 µg/mL (≈ 3.3 to 9.89 µM); EC50 (HSV-2 (strain) Lyons): 1 µg/mL (≈ 3.3 µM); EC50 (VZV (strain) TK^- 07-1): 0.004 µg/mL (≈ 0.0132 µM); antiviral activity (in words) (DNA-viruses): the most effective one; also recorded: best antiviral activity

Question: For Nc1nc2c(ncn2COCCO)c(=O)[nH]1 [ACV, aclycovir, reference compound], which EC50 (HSV-1 (strain) McIntyre) is on record?
Answer: 0.1 µg/mL (≈ 0.444 µM)

Question: And the EC50 (CMV (strain) Davis)?
Answer: 20 µg/mL (≈ 88.8 µM)

Question: And the “activity against TK^- herpes viruses (in words)” value (TK^- herpes viruses)?
Answer: inactive

Question: And the EC50 [1]?
Answer: 20 µg/mL (≈ 88.8 µM)

Question: What about the EC50 (Vaccinia) of the same molecule?
Answer: 70 µg/mL (≈ 311 µM)

Question: And the EC50 (Vesicular stomatitis)?
Answer: > 400 µg/mL

Question: And the EC50 [2]?
Answer: 70 µg/mL (≈ 311 µM)

Question: What about the EC50 (Herpes simplex 2 (G); Table 3) of the same molecule?
Answer: 0.7 µg/mL (≈ 3.11 µM)

Question: And the EC50 (Herpes simplex 2 (G); Table 4, HSV-2 G)?
Answer: 0.07 µg/mL (≈ 0.311 µM)

Question: What about the EC50 (CMV (strain) AD 169) of the same molecule?
Answer: 30 µg/mL (≈ 133 µM)

Question: And the EC50 (HSV-1 (strain) F)?
Answer: 0.2 µg/mL (≈ 0.888 µM)

Question: And the EC50 (Moloney sarcoma)?
Answer: 50 µg/mL (≈ 222 µM)

Question: What about the “solubility (in words)” value [5] of the same molecule?
Answer: low solubility

Question: And the EC50 (Herpes simplex I (KOS))?
Answer: 0.2 µg/mL (≈ 0.888 µM)

Question: What about the EC50 (HSV-2 (strain) 196) of the same molecule?
Answer: 0.07 µg/mL (≈ 0.311 µM)

Question: And the EC50 (HSV-2 (strain) Lyons)?
Answer: 0.07 µg/mL (≈ 0.311 µM)
